Experimental data taken from patent US10646489B2, “Compositions and methods for increasing energy metabolism” (NuSirt Sciences, Inc., priority 2012, dated 2020).

How the values were obtained:
[1] = Substitution of leucine by other branched chain amino acids in the synergy with a PDE5 inhibitor
From the text: Branched chain amino acids that can be combined with a PDE-5 inhibitor have aliphatic side chains with a branch carbon atom that is bound to two or more other atoms. The other atoms may be carbon atoms. Examples of branched chain amino acids include leucine, isoleucine, and valine. Branched chain amino acids may also include other compounds, such as 4-hydroxyisoleucine. In some embodiments, the compositions are substantially free of one or more, or all of non-branched chain amino acids. In some embodiments, the compositions are substantially free of one or more, or all of non-branched chain amino acids in free amino acid form. For example, the compositions can be substantially free of […], and/or tyrosine. The compositions can be substantially free of […], and/or tyrosine in free amino acid form. In some embodiments, the branched chain amino acid is leucine. In some embodiments, the compositions may be substantially free of isoleucine and/or valine, which may be in free form. The synergistic effects between leucine and a PDE5 inhibitor, as described herein, are not observed when leucine is substituted with isoleucine and valine. Not wishing to be bound by any particular theory, isoleucine, valine, and leucine compete with each other for transport and/or absorption, and inclusion of isoleucine and valine in a composition would reduce the efficacy of any leucine in the composition. […]

3T3-L1 adipocytes [2] = experiment: Glucose utilization (extracellular acidification response to glucose injection) in 3T3-L1 adipocytes / adipocytes; type: cell-based
Experimental: (§1) Glucose utilization was measured as extracellular acidification response to glucose injection. *p=0.05. […] Treatment with 0.5 mM leucine corresponds to a circulating level of the same molarity achieved by administering about 1,125 mg of dietary leucine to a human subject. Treatment with 0.25 mM leucine corresponds to a circulating level of the same molarity achieved by administering about 300 mg of dietary leucine to a human subject.

C2C12 myotubes [3] = experiment: Nitric oxide production in C2C12 myotubes; type: cell-based; settings: HMB or resveratrol, each, p<0.0001
Experimental: Treatment with 0.5 mM leucine corresponds to a circulating level of the same molarity achieved by administering about 1,125 mg of dietary leucine to a human subject. Treatment with 0.25 mM leucine corresponds to a circulating level of the same molarity achieved by administering about 300 mg of dietary leucine to a human subject.

C2C12 myotubes [4] = experiment: Glucose utilization (extracellular acidification response to glucose injection) in C2C12 myotubes / muscle cells; type: cell-based
Experimental: as §1, with “*p=0.04.” for “*p=0.05.”

C2C12 myotubes [5] = experiment: Fatty acid oxidation (O2 consumption response to palmitate injection) in C2C12 myotubes / muscle cells; type: cell-based; settings: for increase in myotube fat oxidation, with HMB: PDE 5 inhibitor 1 nM with HMB (5 μM); for increase in myotube fat oxidation, with leucine: PDE 5 inhibitor 1 nM with leucine (0.5 mM); for increase in myotube fat oxidation, with resveratrol: PDE 5 inhibitor 1 nM with resveratrol (200 nM)
Experimental: Fatty acid oxidation was measured as O2 consumption response to palmitate injection and is expressed as % change from pre-injection baseline. […] Data expressed as % change from control value. *p=0.013; **p=0.015. The output of the pathways can be measured using one or more methods, disclosed herein and/or known in the art. […] Mitochondrial biogenesis can be measured using a mitochondrial probe by using fluorescence. AMPK activity can be determined by measuring AMPK phosphorylation via an ELISA assay or by Western blot. Sirt1 activity can be determined by measuring deacetylation of a substrate, which can be detected using a fluorophore. […] Treatment with 0.5 mM leucine corresponds to a circulating level of the same molarity achieved by administering about 1,125 mg of dietary leucine to a human subject. Treatment with 0.25 mM leucine corresponds to a circulating level of the same molarity achieved by administering about 300 mg of dietary leucine to a human subject.

[6] = Dose-response of the PDE inhibitor alone (concentration without effect); type: cell-based
Experimental: (§2) Vinopocetine, which is a PDE 1 inhibitor, was tested in combination with leucine, HMB, and resveratrol for its effects on energy metabolism.
(§3) Two PDE 3 inhibitors were studied, amrinone and cilostamide, in combination with leucine and HMB for their effects on energy metabolism.
Two PDE 4 inhibitors were studied, rolipram and YM796, in combination with leucine and HMB for their effects on energy metabolism.
(§4) Icariin is a naturally occurring flavonol with significant PDE 5 inhibitory activity.

AMPK [7] = experiment: AMPK activity / phosphorylation in muscle cells; type: cell-based
From the text: (§5) The output of the pathways can be measured using one or more methods, disclosed herein and/or known in the art. For example, fatty acid oxidation can be determined by measuring oxygen consumption, or 3H-labeled palmitate oxidation. Mitochondrial biogenesis can be measured using a mitochondrial probe by using fluorescence. AMPK activity can be determined by measuring AMPK phosphorylation via an ELISA assay or by Western blot. Sirt1 activity can be determined by measuring deacetylation of a substrate, which can be detected using a fluorophore.
(§6) Two PDE 4 inhibitors were studied, rolipram and YM796, in combination with leucine and HMB for their effects on energy metabolism. Dose-response indicate concentrations of 0.1 nM or below of rolipram and YM796 exert no effect; accordingly, this was the concentration used in these experiments. […] However, no synergy was found for glucose utilization or AMPK activation.

AMPK [8] = experiment: AMPK activation in adipocytes; type: cell-based; settings: rolipram 0.1 nM combinations
From the text: as §5, §6

C2C12 myotubes [9] = experiment: Mitochondrial biogenesis measured as mitochondrial mass in C2C12 myotubes; type: cell-based
Experimental: (§7) The output of the pathways can be measured using one or more methods, disclosed herein and/or known in the art. […] Mitochondrial biogenesis can be measured using a mitochondrial probe by using fluorescence. AMPK activity can be determined by measuring AMPK phosphorylation via an ELISA assay or by Western blot. Sirt1 activity can be determined by measuring deacetylation of a substrate, which can be detected using a fluorophore. […] Treatment with 0.5 mM leucine corresponds to a circulating level of the same molarity achieved by administering about 1,125 mg of dietary leucine to a human subject. Treatment with 0.25 mM leucine corresponds to a circulating level of the same molarity achieved by administering about 300 mg of dietary leucine to a human subject.

3T3-L1 adipocytes [10] = experiment: Fatty acid oxidation in 3T3-L1 adipocytes / adipocytes; type: cell-based; settings: p<0.05
From the text: as §7, with “Data expressed as % change from control value.*p<0.05. The” for “The”

[11] = Synergy on energy metabolism (fat oxidation, glucose utilization), cell type not stated; type: cell-based
Experimental: as §2, §3, §4

diet-induced obese mouse = experiment: Post-prandial glucose, insulin and HOMAIR in the diet-induced obese mouse; type: in vivo; settings: 14-day treatment
Experimental: The interactive effects of icariin, a flavanol with specific PDE5 inhibitory properties, on glycemia and insulin sensitivity were assessed in the diet-induced obese mouse, which can be used as a murine model of type 2 diabetes. Male C57/BL6 mice were placed on standard low-fat chow (control; 10% energy from fat) or high fat (60% energy from fat, Research Diets # D12492, Research Diets, Inc, New Brunswick, N.J.) at six weeks of age to induce insulin resistance. […], with 10 animals per group: Low fat diet (LFD) control; High fat diet (HFD) control; HFD+leucine (24 g/kg diet, a two-fold increase over control levels)1 HFD+leucine (24 g/kg diet)+icariin (25 mg/kg diet). […] Mice were fasted overnight (˜16 hours) prior to measurement of fasting blood glucose, insulin and glucose tolerance. Glucose tolerance was determined following measurement of fasting glucose via intraperitoneal administration of glucose (1.2 g/kg body weight) followed by blood glucose measurement at 15, 30, 60, 90 and 120 minutes. Post-prandial glucose was measured within one hour of cessation of eating. Insulin tolerance was measured via an insulin tolerance test (ITT). Food was removed 4-6 hours prior to ITT, and baseline blood glucose measured. The mice were then injected intraperitoneally with insulin (1.2 U/kg body weight) and blood glucose was measured 15, 30, 60, 90 and 120 minutes following insulin injection. The homeostasis model assessment of insulin resistance (HOMAIR) was used as a screening index of changes in insulin sensitivity. HOMAIR is calculated via standard formula from fasting plasma insulin and glucose as follows: HOMAIR=[Insulin (uU/mL)×glucose (mM)]/22.5. The plasma glucose and insulin concentrations were measured using the Glucose Assay Kit from Biovision (Milpitas, Calif.) and the Insulin kit from Millipore (Billerica, Mass.), respectively. CRP levels in plasma were determined by ELISA (CRP: Life Diagnostics, West Chester, Pa.).

[12] = 25 mg/kg diet; ~4 mg/kg body weight; previous published studies; cited from earlier work
[13] = vinpocetine 0.1 nM with either leucine (0.5 mM) or HMB (5 μM)

CC[C@H](C)[C@H](N)C(=O)O [isoleucine]
synergistic effects with a PDE5 inhibitor when substituted for leucine [1]: not observed

CCCc1nn(C)c2c(=O)[nH]c(-c3cc(S(=O)(=O)N4CCN(C)CC4)ccc3OCC)nc12 [sildenafil]
synergy of HMB or resveratrol with sildenafil on glucose utilization (3T3-L1 adipocytes [2]; 3T3-L1 adipocytes): neither HMB nor resveratrol exerted any significant synergy | increase in nitric oxide production (C2C12 myotubes [3]; sildenafil (1 nM) with leucine): 15-30% | augmentation of myotube glucose utilization, with resveratrol (C2C12 myotubes [4]; C2C12 myotubes, sildenafil 1 nM with resveratrol 200 nM, p=0.04): 53% | increase in myotube fat oxidation, with HMB (C2C12 myotubes [5]; C2C12 myotubes): 203% | increase in myotube fat oxidation, with leucine (C2C12 myotubes [5]; C2C12 myotubes): 232% | increase in myotube fat oxidation, with resveratrol (C2C12 myotubes [5]; C2C12 myotubes): no interaction | fatty acid oxidation, agent alone (C2C12 myotubes [5]; C2C12 myotubes, sildenafil 1 nM (change from baseline) or leucine 0.5 mM alone): about 50% | concentration that exerts no effect (dose-response) [6]: below 1 nM

COc1ccc(C2CNC(=O)C2)cc1OC1CCCC1 (stereo not drawn) [rolipram]
synergistic effect with leucine, HMB or resveratrol with respect to AMPK activity (AMPK [7]; muscle cells, rolipram 0.1 nM): no synergistic effect | AMPK phosphorylation (AMPK [7]; rolipram alone, not augmented by leucine or HMB): activated | synergy for glucose utilization (3T3-L1 adipocytes [2]; adipocytes, rolipram 0.1 nM combinations): no synergy | synergistic effect with leucine, HMB or resveratrol with respect to glucose utilization (C2C12 myotubes [4]; muscle cells, rolipram 0.1 nM): no synergistic effect | synergy for AMPK activation (AMPK [8]): no synergy | synergistic effect with leucine, HMB or resveratrol with respect to fat oxidation (C2C12 myotubes [5]; muscle cells, rolipram 0.1 nM): no synergistic effect

Oc1ccc(/C=C/c2cc(O)cc(O)c2)cc1 [resveratrol, 3,5,4′-Trihydroxy-trans-stilbene]
effect of resveratrol on the sildenafil interaction (mitochondrial biomass) (C2C12 myotubes [9]; FIG. 12): no significant effect | interaction of resveratrol with icariin (mitochondrial biogenesis) (C2C12 myotubes [9]; FIG. 13): did not exhibit a significant interaction

CC(C)(O)CC(=O)O [HMB, beta-hydroxymethylbutyrate]
fatty acid oxidation, agent alone (3T3-L1 adipocytes [10]; 3T3-L1 adipocytes, leucine 0.5 mM or HMB 5 μM alone): 29%

Nc1cc(-c2ccncc2)c[nH]c1=O [amrinone]
synergy with either leucine or HMB (energy metabolism) ([11]; amrinone 10 nM): no significant synergy

CC(C)[C@H](N)C(=O)O [valine]
synergistic effects with a PDE5 inhibitor when substituted for leucine [1]: not observed

insulin
decrease in HOMAIR vs. untreated HFD mice (diet-induced obese mouse): ~40% | decrease in circulating (post-prandial) insulin vs. untreated HFD mice (diet-induced obese mouse): ~30%

COc1ccc(-c2oc3c(CC=C(C)C)c(O[C@@H]4O[C@H](CO)[C@@H](O)[C@H](O)[C@H]4O)cc(O)c3c(=O)c2O[C@@H]2O[C@@H](C)[C@H](O)[C@@H](O)[C@H]2O)cc1 [icariin]
synergy with both leucine and HMB to up regulate mitochondrial biogenesis (C2C12 myotubes [9]; icariin 1 nM, FIG. 13, p<0.001): significant synergy | effect on nitric oxide production (C2C12 myotubes [3]; icariin with leucine): modest, significant effects | effect of the selected level [12]: no effect | increase in myotube fat oxidation, with HMB (C2C12 myotubes [5]; C2C12 myotubes): 75% | increase in myotube fat oxidation, with leucine (C2C12 myotubes [5]; C2C12 myotubes): 77% | increase in myotube fat oxidation, with resveratrol (C2C12 myotubes [5]; C2C12 myotubes): 157% | concentration that exerts no effect (dose-response) [6]: below 1 nM | synergy with respect to glucose utilization ([11]; icariin 1 nM): did not exhibit significant synergy

CN(C(=O)CCCOc1ccc2[nH]c(=O)ccc2c1)C1CCCCC1 [cilostamide]
increase in fat oxidation (3T3-L1 adipocytes [10]; adipocytes, cilostamide 10 nM combined with either leucine (0.5 mM) or HMB (5 μM)): 58% | increase in fat oxidation (C2C12 myotubes [5]; muscle cells, cilostamide 10 nM combined with either leucine (0.5 mM) or HMB (5 μM), p<0.05): 92%

CCOC(=O)C1=C[C@]2(CC)CCCN3CCc4c(n1c1ccccc41)[C@@H]32 [Vinpocetine]
increase in glucose utilization (3T3-L1 adipocytes [2]; adipocytes, vinpocetine 0.1 nM with low-dose resveratrol (200 nM), p=0.03): 70% | concentration that exerts no effect (dose-response) [6]: ≤ 0.1 nM | synergy with respect to fat oxidation [11, 13]: no synergy | synergy with respect to glucose utilization [11, 13]: no synergy
